Tests used:
hEP4 = target: T1, hEP4 (Homo sapiens, UniProt P35408); assay: hEP4 cAMP assay; format: cell-based; conditions: HEK293 cells overexpressing hEP4; PGE2 agonist 20 nM; graded per Table 21; read-out: IC50 (nM) EP4 cAMP
T1 construct: expressed in transfected cells; host or cells: HEK293
Summary of the method: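 HEK293 cells overexpressing hEP4, starved 4 h, were treated with compound (10 μM-0.001 nM) plus 20 nM PGE2 (EC50-80) in HBSS buffer with 0.5 mM IBMX for 18.5 min at room temperature. cAMP was read by TR-FRET (665/615 nm) as % of DMSO control; IC50 from 4-parameter fit, median of multiple experiments.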

hEP2 = target: T2, hEP2 (Homo sapiens, UniProt P43116); assay: hEP2 cAMP assay; format: cell-based; conditions: HEK293 cells overexpressing hEP2; PGE2 agonist 400 pM; graded per Table 21; read-out: IC50 (nM) EP2 cAMP
T2 construct: expressed in transfected cells; host or cells: HEK293
T2 sequence (P43116 whole entry): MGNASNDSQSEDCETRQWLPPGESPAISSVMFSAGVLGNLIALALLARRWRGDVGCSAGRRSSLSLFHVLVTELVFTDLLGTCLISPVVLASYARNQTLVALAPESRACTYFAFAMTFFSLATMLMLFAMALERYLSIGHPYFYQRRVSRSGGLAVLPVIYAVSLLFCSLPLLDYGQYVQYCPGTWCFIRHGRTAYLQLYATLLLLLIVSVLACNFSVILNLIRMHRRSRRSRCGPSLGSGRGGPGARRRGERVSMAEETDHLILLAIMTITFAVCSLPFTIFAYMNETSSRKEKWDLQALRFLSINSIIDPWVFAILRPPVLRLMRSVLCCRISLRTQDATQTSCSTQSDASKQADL
Summary of the method: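 HEK293 cells overexpressing hEP2, serum-starved 4 h, then 1,000 cells/well treated with compound (10 μM–0.001 nM) plus 400 pM PGE2 (about EC50-80) in HBSS buffer with 0.5 mM IBMX for 12 min at room temperature. cAMP measured by TR-FRET (665/615 nm) as % of DMSO control; IC50 from 4-parameter fit, median of repeats.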

T1 sequence (P35408 whole entry): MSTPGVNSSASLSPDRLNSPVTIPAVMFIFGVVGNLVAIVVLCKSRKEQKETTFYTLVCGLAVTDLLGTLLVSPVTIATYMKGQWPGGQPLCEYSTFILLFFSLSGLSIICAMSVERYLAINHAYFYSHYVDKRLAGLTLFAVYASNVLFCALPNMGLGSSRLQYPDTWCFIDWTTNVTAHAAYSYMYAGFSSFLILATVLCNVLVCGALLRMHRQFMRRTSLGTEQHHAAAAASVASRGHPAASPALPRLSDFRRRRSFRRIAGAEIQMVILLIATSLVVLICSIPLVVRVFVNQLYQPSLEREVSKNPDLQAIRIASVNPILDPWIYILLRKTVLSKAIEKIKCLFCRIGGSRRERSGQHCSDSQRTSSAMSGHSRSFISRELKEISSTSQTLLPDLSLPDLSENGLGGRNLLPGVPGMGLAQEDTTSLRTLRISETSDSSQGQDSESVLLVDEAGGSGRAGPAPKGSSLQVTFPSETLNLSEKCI

Compound | IC50 (hEP4) | IC50 (hEP2)
Cc1sc(C)c(C(=O)NC2CC3(C2)CC(C(=O)O)C3)c1Cc1ccc(-c2cc(O)cc(F)c2)cc1 (centres unmarked) [Example 71, 6-(4-((3′-fluoro-5′-hydroxy-[1,1′-biphenyl]-4-yl)methyl)-2,5-dimethylthiophene-3-carboxamido)spiro[3.3]heptane-2-carboxylic acid] | < 500 nM | 500 to 5000 nM
Cc1sc(C)c(C(=O)NC2CC3(C2)CC(C(=O)O)C3)c1Cc1ccc(-c2ccnc(O)c2)cc1 (centres unmarked) [Example 72, 6-(4-(4-(2-hydroxypyridin-4-yl)benzyl)-2,5-dimethylthiophene-3-carboxamido)spiro[3.3]heptane-2-carboxylic acid] | > 10000 nM | > 10000 nM
Cc1sc(C)c(C(=O)N(C)C2CC3(CC(C(=O)O)C3)C2)c1Cc1ccc(-c2ccccc2)cc1 (centres unmarked) [Example 73, 6-(4-([1,1′-biphenyl]-4-ylmethyl)-N,2,5-trimethylthiophene-3-carboxamido)spiro[3.3]heptane-2-carboxylic acid] | > 10000 nM | > 10000 nM
Cc1sc(C)c(C(=O)NC2CC3(C2)CC(C(=O)O)C3)c1Oc1ccc(-c2ccccc2)cc1 (centres unmarked) [Example 74, 6-(4-([1,1′-biphenyl]-4-yloxy)-2,5-dimethylthiophene-3-carboxamido)spiro[3.3]heptane-2-carboxylic acid] | > 10000 nM | > 10000 nM
Cc1sc(C)c(C(=O)NC2CC3(C2)CC(C(=O)O)C3)c1Nc1ccc(-c2ccccc2)cc1 (centres unmarked) [Example 75, 6-(4-([1,1′-biphenyl]-4-ylamino)-2,5-dimethylthiophene-3-carboxamido)spiro[3.3]heptane-2-carboxylic acid] | > 10000 nM | > 10000 nM
Cc1sc(C)c(N(C)c2ccc(-c3ccccc3)cc2)c1C(=O)NC1CC2(C1)CC(C(=O)O)C2 (centres unmarked) [Example 76, 6-(4-([1,1′-biphenyl]-4-yl(methyl)amino)-2,5-dimethylthiophene-3-carboxamido)spiro[3.3]heptane-2-carboxylic acid] | 500 to 5000 nM | > 10000 nM
Cc1sc(C)c(C(=O)NC2CC3(C2)CC(C(=O)O)C3)c1CN1CCN(c2ccccc2)CC1 (centres unmarked) [Example 77, 6-(2,5-dimethyl-4-((4-phenylpiperazin-1-yl)methyl)thiophene-3-carboxamido)spiro[3.3]heptane-2-carboxylic acid] | > 10000 nM | > 10000 nM
Cc1sc(C)c(C(=O)NC2CC3(C2)CC(C(=O)O)C3)c1Cn1cc(-c2ccccc2)cn1 (centres unmarked) [Example 78, 6-(2,5-dimethyl-4-((4-phenyl-1H-pyrazol-1-yl)methyl)thiophene-3-carboxamido)spiro[3.3]heptane-2-carboxylic acid] | 5000 to 10000 nM | > 10000 nM
O=C(NC1CC2(C1)CC(C(=O)O)C2)c1csc2ccn(Cc3ccc(-c4ccccc4)cc3)c12 (centres unmarked) [Example 79, 6-(4-([1,1′-biphenyl]-4-ylmethyl)-4H-thieno[3,2-b]pyrrole-3-carboxamido)spiro[3.3]heptane-2-carboxylic acid] | < 500 nM | < 500 nM
Cc1sc2ccn(Cc3ccc(-c4ccccc4)cc3)c2c1C(=O)NC1CC2(C1)CC(C(=O)O)C2 (centres unmarked) [Example 80, 6-(4-([1,1′-biphenyl]-4-ylmethyl)-2-methyl-4H-thieno[3,2-b]pyrrole-3-carboxamido)spiro[3.3]heptane-2-carboxylic acid] | < 500 nM | 500 to 5000 nM
Cc1cn(Cc2ccc(-c3ccccc3)cc2)c2c(C(=O)NC3CC4(C3)CC(C(=O)O)C4)csc12 (centres unmarked) [Example 81, 6-(4-([1,1′-biphenyl]-4-ylmethyl)-6-methyl-4H-thieno[3,2-b]pyrrole-3-carboxamido)spiro[3.3]heptane-2-carboxylic acid] | > 10000 nM | 500 to 5000 nM
O=C(NC1CC2(C1)CC(C(=O)O)C2)c1c(Cl)sc2ccn(Cc3ccc(-c4ccccc4)cc3)c12 (centres unmarked) [Example 82, 6-(4-([1,1′-biphenyl]-4-ylmethyl)-2-chloro-4H-thieno[3,2-b]pyrrole-3-carboxamido)spiro[3.3]heptane-2-carboxylic acid] | < 500 nM | 500 to 5000 nM
O=C(N[C@H]1C[C@H](C(=O)O)C1)c1csc2ccn(Cc3ccc(-c4ccccc4)cc3)c12 [Example 83, (1R,3R)-3-(4-([1,1′-biphenyl]-4-ylmethyl)-4H-thieno[3,2-b]pyrrole-3-carboxamido)cyclobutane-1-carboxylic acid] | > 10000 nM | 500 to 5000 nM
O=C(N[C@H]1C[C@@H](C(=O)O)C1)c1csc2ccn(Cc3ccc(-c4ccccc4)cc3)c12 [Example 84, (1S,3S)-3-(4-([1,1′-biphenyl]-4-ylmethyl)-4H-thieno[3,2-b]pyrrole-3-carboxamido)cyclobutane-1-carboxylic acid] | > 10000 nM | > 10000 nM
COc1cccc(-c2ccc(Cn3ccc4scc(C(=O)NC5CC6(C5)CC(C(=O)O)C6)c43)cc2)c1 (centres unmarked) [Example 85, 6-(4-((3′-methoxy-[1,1′-biphenyl]-4-yl)methyl)-4H-thieno[3,2-b]pyrrole-3-carboxamido)spiro[3.3]heptane-2-carboxylic acid] | < 500 nM | < 500 nM
O=C(NC12CCC(C(=O)O)(CC1)CC2)c1csc2ccn(Cc3ccc(-c4ccccc4)cc3)c12 [Example 88, 4-(4-([1,1′-biphenyl]-4-ylmethyl)-4H-thieno[3,2-b]pyrrole-3-carboxamido)bicyclo[2.2.2]octane-1-carboxylic acid] | 5000 to 10000 nM | 500 to 5000 nM
COc1cc(OC)cc(-c2ccc(Cn3ccc4scc(C(=O)NC5CC6(C5)CC(C(=O)O)C6)c43)cc2)c1 (centres unmarked) [Example 89, 6-(4-((3′,5′-dimethoxy-[1,1′-biphenyl]-4-yl)methyl)-4H-thieno[3,2-b]pyrrole-3-carboxamido)spiro[3.3]heptane-2-carboxylic acid] | < 500 nM | < 500 nM
O=C(NC1CC2(C1)CC(C(=O)O)C2)c1csc2ccn(Cc3ccc(C(F)(F)F)cc3)c12 (centres unmarked) [Example 90, 6-(4-(4-(trifluoromethyl)benzyl)-4H-thieno[3,2-b]pyrrole-3-carboxamido)spiro[3.3]heptane-2-carboxylic acid] | 500 to 5000 nM | 500 to 5000 nM
O=C(NC1CC2(C1)CC(C(=O)O)C2)c1csc2ccn(CCc3ccc(-c4ccccc4)cc3)c12 (centres unmarked) [Example 91, 6-(4-(2-([1,1′-biphenyl]-4-yl)ethyl)-4H-thieno[3,2-b]pyrrole-3-carboxamido)spiro[3.3]heptane-2-carboxylic acid] | > 10000 nM | > 10000 nM
O=C(NC1CC2(C1)CC(C(=O)O)C2)c1csc2ccn(Cc3ccc(-c4cccc(F)c4)cc3)c12 (centres unmarked) [Example 92, 6-(4-((3′-fluoro-[1,1′-biphenyl]-4-yl)methyl)-4H-thieno[3,2-b]pyrrole-3-carboxamido)spiro[3.3]heptane-2-carboxylic acid] | < 500 nM | < 500 nM
O=C(NC1CC2(C1)CC(C(=O)O)C2)c1csc2ccn(Cc3ccc(-c4ncccn4)cc3)c12 (centres unmarked) [Example 93, 6-(4-(4-(pyrimidin-2-yl)benzyl)-4H-thieno[3,2-b]pyrrole-3-carboxamido)spiro[3.3]heptane-2-carboxylic acid] | 500 to 5000 nM | 5000 to 10000 nM
O=C(NC1CC2(C1)CC(C(=O)O)C2)c1csc2ccn(Cc3cnc(-c4ccccc4)nc3)c12 (centres unmarked) [Example 94, 6-(4-((2-phenylpyrimidin-5-yl)methyl)-4H-thieno[3,2-b]pyrrole-3-carboxamido)spiro[3.3]heptane-2-carboxylic acid] | < 500 nM | 500 to 5000 nM
COc1cc(F)cc(-c2ccc(Cn3ccc4sc(C)c(C(=O)NC5CC6(C5)CC(C(=O)O)C6)c43)cc2)c1 (centres unmarked) [Example 95] | < 500 nM | 500 to 5000 nM
Cc1sc2ccn(CC#Cc3ccccc3)c2c1C(=O)NC1CC2(C1)CC(C(=O)O)C2 (centres unmarked) [Example 96, 6-(2-methyl-4-(3-phenylprop-2-yn-1-yl)-4H-thieno[3,2-b]pyrrole-3-carboxamido)spiro[3.3]heptane-2-carboxylic acid] | 500 to 5000 nM | > 10000 nM
COc1cc(F)cc(-c2ccc(Cn3ccc4scc(C(=O)NC5CC6(C5)CC(C(=O)O)C6)c43)cc2)c1 (centres unmarked) [Example 97, 6-4-((3′-fluoro-5′-methoxy[1,1′-biphenyl-4-yl)methyl)-4H-thieno[3,2-b]pyrrole-3-carboxamido)spiro[3.3]heptane-2-carboxylic acid] | < 500 nM | < 500 nM
O=C(NC1CC2(C1)CC(C(=O)O)C2)c1csc2ccn(CC#Cc3ccccc3)c12 (centres unmarked) [Example 98, 6-(2-4-(3-phenylprop-2-yn-1-yl)-4H-thieno[3,2-b]pyrrole-3-carboxamido)spiro[3.3]heptane-2-carboxylic acid] | 500 to 5000 nM | > 10000 nM
O=C(NC1CC2(C1)CC(C(=O)O)C2)c1csc2ccn(Cc3ccc(-c4cccnc4)cc3)c12 (centres unmarked) [Example 99, 6-(4-(4-(pyridin-3-yl)benzyl)-4H-thieno[3,2-b]pyrrole-3-carboxamido)spiro[3.3]heptane-2-carboxylic acid] | < 500 nM | > 10000 nM
O=C(NC1CC2(C1)CC(C(=O)O)C2)c1csc2ccn(Cc3ccc(-c4cncc(F)c4)cc3)c12 (centres unmarked) [Example 100, 6-(4-(4-(5-fluoropyridin-3-yl)benzyl)-4H-thieno[3,2-b]pyrrole-3-carboxamido)spiro[3.3]heptane-2-carboxylic acid] | < 500 nM | 500 to 5000 nM
